{"source": "patent US20220018852A1", "about": "“METHODS AND KITS FOR DETECTING LIVER DYSFUNCTION IN A SUBJECT” (priority 2018, published 2022)", "key": {"HSA [1]": {"target": "T1, HSA (Homo sapiens, UniProt P02768)", "T1 sequence (P02768 25-609)": "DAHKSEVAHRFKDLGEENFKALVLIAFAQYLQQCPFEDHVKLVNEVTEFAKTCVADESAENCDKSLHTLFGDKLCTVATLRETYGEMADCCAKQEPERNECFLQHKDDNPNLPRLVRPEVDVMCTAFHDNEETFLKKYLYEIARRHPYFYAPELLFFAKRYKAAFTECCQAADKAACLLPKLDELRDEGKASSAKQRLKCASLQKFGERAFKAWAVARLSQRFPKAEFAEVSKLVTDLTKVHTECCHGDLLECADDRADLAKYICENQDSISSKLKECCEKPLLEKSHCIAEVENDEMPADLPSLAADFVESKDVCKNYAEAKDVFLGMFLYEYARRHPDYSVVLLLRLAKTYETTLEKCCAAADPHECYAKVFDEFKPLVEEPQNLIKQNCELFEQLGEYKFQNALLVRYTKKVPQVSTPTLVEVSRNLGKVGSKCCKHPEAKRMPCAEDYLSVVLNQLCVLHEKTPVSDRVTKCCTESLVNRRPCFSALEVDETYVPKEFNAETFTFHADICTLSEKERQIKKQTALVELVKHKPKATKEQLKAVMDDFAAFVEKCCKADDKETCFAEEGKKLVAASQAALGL", "test": "Enhanced binding capacity of serum/HSA: serum of patients with no liver dysfunction spiked with ligand, ultrafiltration, ICP-MS of unbound ligand"}, "albumin of rats": {"target": "T2, albumin of rats (Rattus norvegicus, UniProt P02770)", "T2 construct": "The SEB test was performed in the serum of all groups of rats; from tissue; host or cells: serum of male Wistar rats (ethanol-treated and control)", "T2 sequence (P02770 25-608)": "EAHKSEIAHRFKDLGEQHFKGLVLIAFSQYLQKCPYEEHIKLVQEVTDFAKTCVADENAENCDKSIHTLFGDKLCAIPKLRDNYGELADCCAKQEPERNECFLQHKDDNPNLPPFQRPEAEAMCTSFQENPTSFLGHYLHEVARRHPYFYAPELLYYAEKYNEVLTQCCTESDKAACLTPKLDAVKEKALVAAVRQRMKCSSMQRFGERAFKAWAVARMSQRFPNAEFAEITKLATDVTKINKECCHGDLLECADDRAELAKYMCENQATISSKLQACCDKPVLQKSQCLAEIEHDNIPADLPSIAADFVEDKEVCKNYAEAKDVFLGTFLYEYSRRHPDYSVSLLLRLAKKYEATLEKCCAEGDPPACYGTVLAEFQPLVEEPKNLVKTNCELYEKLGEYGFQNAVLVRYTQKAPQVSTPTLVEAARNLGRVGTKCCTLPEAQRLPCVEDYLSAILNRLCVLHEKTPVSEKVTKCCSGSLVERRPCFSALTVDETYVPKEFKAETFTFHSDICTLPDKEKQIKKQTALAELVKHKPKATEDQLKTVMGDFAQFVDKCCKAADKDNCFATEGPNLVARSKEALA", "test": "SEB test applied to serum of ethanol-treated rats", "assay_type": "binding", "conditions": "L-thyroxine at 1/5, Au at 1/50"}, "HSA [2]": {"target": "T1, HSA", "test": "SEB test, development cohort: 45 cirrhotic vs 45 control patients", "assay_type": "binding", "conditions": "45 cirrhotic vs 45 controls"}, "HSA [3]": {"target": "T1, HSA", "conditions": "literature [21]; cited from earlier work"}, "HSA [4]": {"target": "T1, HSA", "test": "Same binding test with Vialebex commercial albumin solution at 200 mg/mL", "conditions": "Vialebex commercial solution of pure HSA"}, "HSA [5]": {"target": "T1, HSA", "test": "SEB test, discovery cohort: cirrhotic patients vs patients with no liver dysfunction", "assay_type": "binding", "conditions": "for sensitivity of discrimination of cirrhotic from control patients / specificity of discrimination of cirrhotic from control patients: discovery cohort, 18 cirrhotic vs 18 controls, HSA/ligand Au 1/100, Cu 1/10, dansylsarcosine 1/5, L-thyroxine 1/10"}}, "note": "Values joined by “and” are separate entries in the source; they are usually repeats but may differ in a detail not shown here. Equal entries are not always repeated. Structures can show the parent of a compound that is named as a salt."}
{"smiles": "[Cd]", "note": "[Cd]", "values": [{"measurement": "atoms bound per molecule of albumin", "setting": "HSA [1]; serum samples, 100% retention", "value": "≤ 50 atoms per molecule of albumin"}, {"measurement": "SEB test result in rat serum", "setting": "albumin of rats; group D14 (ethanol for 14 days), Cu, Cd", "value": "positive"}, {"measurement": "specificity (Sp)", "setting": "HSA [2]", "value": 98, "unit": "%"}]}
{"smiles": "[Cl][Cu][Cl]", "note": "[Cu, copper(II) chloride]", "values": [{"measurement": "retention when more Cu was added", "setting": "HSA [1]; above 12 Cu atoms per albumin molecule", "value": "≤ 40", "unit": "%"}, {"measurement": "Cu atoms per albumin molecule retained on the ultracentrifugation filter", "setting": "HSA [1]; serum of patients with no liver dysfunction, average retention of 95%", "value": "up to 12 atoms per albumin molecule"}, {"measurement": "average retention", "setting": "HSA [1]; up to 12 Cu atoms per albumin molecule", "value": 95, "unit": "%"}, {"measurement": "atoms of Cu HSA is able to bind (reported)", "setting": "HSA [3]", "value": "less than 2 atoms"}, {"measurement": "specificity (Sp)", "setting": "HSA [2]", "value": 98, "unit": "%"}, {"measurement": "ligand/HSA retention ratio", "setting": "HSA [4]", "value": 40}, {"measurement": "Ratio Cu/HSA, reference value", "setting": "HSA [5]; control patients, mean", "value": 4.3, "unit": "μM/μg/L"}, {"measurement": "sensitivity of discrimination of cirrhotic from control patients", "setting": "HSA [5]", "value": 100, "unit": "%"}, {"measurement": "specificity of discrimination of cirrhotic from control patients", "setting": "HSA [5]", "value": 72, "unit": "%"}, {"measurement": "Ratio Cu/HSA (ligand in the filtrate / albumin)", "setting": "HSA [5]; individual cirrhotic patients 1-18, one value per patient, HSA/Cu 1/10", "value": "7.5 μM/μg/L and 4.97 μM/μg/L and 9.33 μM/μg/L and 15.85 μM/μg/L and 5.5 μM/μg/L and 10.45 μM/μg/L and 9.07 μM/μg/L and 6.86 μM/μg/L and 9.64 μM/μg/L and 7.54 μM/μg/L and 6.74 μM/μg/L and 4.76 μM/μg/L and 5.59 μM/μg/L and 8.25 μM/μg/L and 10.68 μM/μg/L and 11.02 μM/μg/L and 5.26 μM/μg/L and 5.56 μM/μg/L"}, {"measurement": "Ratio Cu/HSA (ligand in the filtrate / albumin)", "setting": "HSA [5]; patient 19, NASH without cirrhosis", "value": 5.1, "unit": "μM/μg/L"}]}
{"smiles": "CN(C)c1cccc2c(S(=O)(=O)N(C)CC(=O)O)cccc12", "note": "[dansylsarcosine, Dansylsarcosine Piperidinium Salt]", "values": [{"measurement": "molecules bound per molecule of albumin", "setting": "HSA [1]; serum samples, 100% retention, L-thyroxine not testable above 1/10 ratio (dissolution problems)", "value": "≤ 2.5 molecules per molecule of albu"}, {"measurement": "specificity (Sp)", "setting": "HSA [2]", "value": 98, "unit": "%"}, {"measurement": "Ratio DS/HSA, reference value", "setting": "HSA [5]; control patients, mean", "value": 0.23, "unit": "μM/μg/L"}, {"measurement": "sensitivity of discrimination of cirrhotic from control patients", "setting": "HSA [5]", "value": 100, "unit": "%"}, {"measurement": "specificity of discrimination of cirrhotic from control patients", "setting": "HSA [5]", "value": 100, "unit": "%"}, {"measurement": "Ratio DS/HSA (ligand in the filtrate / albumin)", "setting": "HSA [5]; individual cirrhotic patients 1-18, one value per patient, HSA/dansylsarcosine 1/5, listed as DS", "value": "4.77 μM/μg/L and 2.26 μM/μg/L and 5.71 μM/μg/L and 7.58 μM/μg/L and 0.78 μM/μg/L and 16.38 μM/μg/L"}]}
{"smiles": "O.O.O.[Cl][Au]([Cl])[Cl]", "note": "[Au, gold(III) chloride trihydrate]", "values": [{"measurement": "SEB test result in rat serum", "setting": "albumin of rats; as soon as D1 (ethanol for 1 day)", "value": "positive"}]}
